System: cockroaches (Blattella germanica)
Assay: Weeklong surface area toxicity test on cockroaches (Example 19)
Format: in vivo
Protocol: In order determine the toxicity of the formulation to the insect after application to a surface over a period of time, the following test was performed. […] Cockroaches were placed in the cups on the first day following the application of the formulations, on the third day following the application of the formulations, and on the sixth day following the application of the formulations in order to monitor the toxicity of the formulations after a period of time had elapsed. The mortality of the cockroaches was then recorded at the time intervals noted. The five cockroaches placed in each cup were one week old cockroaches (Blattella germanica) which had been reared at twenty seven degrees centigrade, at sixty five percent relative humidity, and on a twelve hour light to dark photoperiod. Each of the cups had Fluon®AD1 treated sides to prevent the escape of the cockroaches.

## CCCCCCCCCC(C)=O [Undecanone, 2-Undecanone]
3-4 days treatment, 0.09 μL/cm^2 (5 μL), 23 h
  cockroaches alive (of five per cup): 5
3-4 days treatment, 0.09 μL/cm^2 (5 μL), 24 h
  cockroaches alive (of five per cup): 5
3-4 days treatment, 0.09 μL/cm^2 (5 μL), 27 h
  cockroaches alive (of five per cup): 5
3-4 days treatment, 0.09 μL/cm^2 (5 μL), 30 h
  cockroaches alive (of five per cup): 5
3-4 days treatment, 0.19 μL/cm^2 (10 μL), 5 min
  cockroaches alive (of five per cup): 5
3-4 days treatment, 0.19 μL/cm^2 (10 μL), 10 min
  cockroaches alive (of five per cup): 5
3-4 days treatment, 0.19 μL/cm^2 (10 μL), 15 min
  cockroaches alive (of five per cup): 5
3-4 days treatment, 0.19 μL/cm^2 (10 μL), 30 min
  cockroaches alive (of five per cup): 5
3-4 days treatment, 0.19 μL/cm^2 (10 μL), 60 min
  cockroaches alive (of five per cup): 5
3-4 days treatment, 0.19 μL/cm^2 (10 μL), 90 min
  cockroaches alive (of five per cup): 5
3-4 days treatment, 0.19 μL/cm^2 (10 μL), 2 h
  cockroaches alive (of five per cup): 5
3-4 days treatment, 0.19 μL/cm^2 (10 μL), 4 h
  cockroaches alive (of five per cup): 5
3-4 days treatment, 0.19 μL/cm^2 (10 μL), 23 h
  cockroaches alive (of five per cup): 5
3-4 days treatment, 0.19 μL/cm^2 (10 μL), 24 h
  cockroaches alive (of five per cup): 5
3-4 days treatment, 0.19 μL/cm^2 (10 μL), 27 h
  cockroaches alive (of five per cup): 5
3-4 days treatment, 0.19 μL/cm^2 (10 μL), 30 h
  cockroaches alive (of five per cup): 5
3-4 days treatment, 0.95 μL/cm^2 (50 μL), 5 min
  cockroaches alive (of five per cup): 5
3-4 days treatment, 0.95 μL/cm^2 (50 μL), 10 min
  cockroaches alive (of five per cup): 5
3-4 days treatment, 0.95 μL/cm^2 (50 μL), 15 min
  cockroaches alive (of five per cup): 5
3-4 days treatment, 0.95 μL/cm^2 (50 μL), 30 min
  cockroaches alive (of five per cup): 5
3-4 days treatment, 0.95 μL/cm^2 (50 μL), 60 min
  cockroaches alive (of five per cup): 5
3-4 days treatment, 0.95 μL/cm^2 (50 μL), 90 min
  cockroaches alive (of five per cup): 5
3-4 days treatment, 0.95 μL/cm^2 (50 μL), 2 h
  cockroaches alive (of five per cup): 3
3-4 days treatment, 0.95 μL/cm^2 (50 μL), 4 h
  cockroaches alive (of five per cup): 2
3-4 days treatment, 0.95 μL/cm^2 (50 μL), 23 h
  cockroaches alive (of five per cup): 1
3-4 days treatment, 0.95 μL/cm^2 (50 μL), 24 h
  cockroaches alive (of five per cup): 1
3-4 days treatment, 0.95 μL/cm^2 (50 μL), 27 h
  cockroaches alive (of five per cup): 0
3-4 days treatment, 0.95 μL/cm^2 (50 μL), 30 h
  cockroaches alive (of five per cup): 0
6-7 days treatment, 0.02 μL/cm^2 (1 μL), 5 min
  cockroaches alive (of five per cup): 5
6-7 days treatment, 0.02 μL/cm^2 (1 μL), 10 min
  cockroaches alive (of five per cup): 5
6-7 days treatment, 0.02 μL/cm^2 (1 μL), 15 min
  cockroaches alive (of five per cup): 5
6-7 days treatment, 0.02 μL/cm^2 (1 μL), 30 min
  cockroaches alive (of five per cup): 5
6-7 days treatment, 0.02 μL/cm^2 (1 μL), 60 min
  cockroaches alive (of five per cup): 5
6-7 days treatment, 0.02 μL/cm^2 (1 μL), 90 min
  cockroaches alive (of five per cup): 5
6-7 days treatment, 0.02 μL/cm^2 (1 μL), 2 h
  cockroaches alive (of five per cup): 5
6-7 days treatment, 0.02 μL/cm^2 (1 μL), 4 h
  cockroaches alive (of five per cup): 5
6-7 days treatment, 0.02 μL/cm^2 (1 μL), 21.5 h
  cockroaches alive (of five per cup): 5
6-7 days treatment, 0.02 μL/cm^2 (1 μL), 22 h
  cockroaches alive (of five per cup): 5
6-7 days treatment, 0.02 μL/cm^2 (1 μL), 23 h
  cockroaches alive (of five per cup): 5
6-7 days treatment, 0.02 μL/cm^2 (1 μL), 24 h
  cockroaches alive (of five per cup): 5
6-7 days treatment, 0.02 μL/cm^2 (1 μL), 27 h
  cockroaches alive (of five per cup): 5
6-7 days treatment, 0.02 μL/cm^2 (1 μL), 29 h
  cockroaches alive (of five per cup): 5
6-7 days treatment, 0.02 μL/cm^2 (1 μL), 30 h
  cockroaches alive (of five per cup): 5
6-7 days treatment, 0.02 μL/cm^2 (1 μL), 31 h
  cockroaches alive (of five per cup): 5
6-7 days treatment, 0.09 μL/cm^2 (5 μL), 5 min
  cockroaches alive (of five per cup): 5
6-7 days treatment, 0.09 μL/cm^2 (5 μL), 10 min
  cockroaches alive (of five per cup): 5
6-7 days treatment, 0.09 μL/cm^2 (5 μL), 15 min
  cockroaches alive (of five per cup): 5
6-7 days treatment, 0.09 μL/cm^2 (5 μL), 30 min
  cockroaches alive (of five per cup): 5
6-7 days treatment, 0.09 μL/cm^2 (5 μL), 60 min
  cockroaches alive (of five per cup): 5
6-7 days treatment, 0.09 μL/cm^2 (5 μL), 90 min
  cockroaches alive (of five per cup): 5
6-7 days treatment, 0.09 μL/cm^2 (5 μL), 2 h
  cockroaches alive (of five per cup): 5
6-7 days treatment, 0.09 μL/cm^2 (5 μL), 4 h
  cockroaches alive (of five per cup): 5
6-7 days treatment, 0.09 μL/cm^2 (5 μL), 21.5 h
  cockroaches alive (of five per cup): 5
6-7 days treatment, 0.09 μL/cm^2 (5 μL), 22 h
  cockroaches alive (of five per cup): 5
6-7 days treatment, 0.09 μL/cm^2 (5 μL), 23 h
  cockroaches alive (of five per cup): 5
6-7 days treatment, 0.09 μL/cm^2 (5 μL), 24 h
  cockroaches alive (of five per cup): 5
6-7 days treatment, 0.09 μL/cm^2 (5 μL), 27 h
  cockroaches alive (of five per cup): 5
6-7 days treatment, 0.09 μL/cm^2 (5 μL), 29 h
  cockroaches alive (of five per cup): 5
6-7 days treatment, 0.09 μL/cm^2 (5 μL), 30 h
  cockroaches alive (of five per cup): 5
6-7 days treatment, 0.09 μL/cm^2 (5 μL), 31 h
  cockroaches alive (of five per cup): 5
6-7 days treatment, 0.19 μL/cm^2 (10 μL), 5 min
  cockroaches alive (of five per cup): 5
6-7 days treatment, 0.19 μL/cm^2 (10 μL), 10 min
  cockroaches alive (of five per cup): 5
6-7 days treatment, 0.19 μL/cm^2 (10 μL), 15 min
  cockroaches alive (of five per cup): 5
6-7 days treatment, 0.19 μL/cm^2 (10 μL), 30 min
  cockroaches alive (of five per cup): 5
6-7 days treatment, 0.19 μL/cm^2 (10 μL), 60 min
  cockroaches alive (of five per cup): 5
6-7 days treatment, 0.19 μL/cm^2 (10 μL), 90 min
  cockroaches alive (of five per cup): 5
6-7 days treatment, 0.19 μL/cm^2 (10 μL), 2 h
  cockroaches alive (of five per cup): 5
6-7 days treatment, 0.19 μL/cm^2 (10 μL), 4 h
  cockroaches alive (of five per cup): 5
6-7 days treatment, 0.19 μL/cm^2 (10 μL), 21.5 h
  cockroaches alive (of five per cup): 5
6-7 days treatment, 0.19 μL/cm^2 (10 μL), 22 h
  cockroaches alive (of five per cup): 5
6-7 days treatment, 0.19 μL/cm^2 (10 μL), 23 h
  cockroaches alive (of five per cup): 5
6-7 days treatment, 0.19 μL/cm^2 (10 μL), 24 h
  cockroaches alive (of five per cup): 5
6-7 days treatment, 0.19 μL/cm^2 (10 μL), 27 h
  cockroaches alive (of five per cup): 5
6-7 days treatment, 0.19 μL/cm^2 (10 μL), 29 h
  cockroaches alive (of five per cup): 5
6-7 days treatment, 0.19 μL/cm^2 (10 μL), 30 h
  cockroaches alive (of five per cup): 5
6-7 days treatment, 0.19 μL/cm^2 (10 μL), 31 h
  cockroaches alive (of five per cup): 5
6-7 days treatment, 0.95 μL/cm^2 (50 μL), 21.5 h
  cockroaches alive (of five per cup): 2
6-7 days treatment, 0.95 μL/cm^2 (50 μL), 22 h
  cockroaches alive (of five per cup): 2
6-7 days treatment, 0.95 μL/cm^2 (50 μL), 23 h
  cockroaches alive (of five per cup): 2
6-7 days treatment, 0.95 μL/cm^2 (50 μL), 24 h
  cockroaches alive (of five per cup): 2

Source: patent US20080069785A1, “PEST-CONTROL COMPOSITIONS, AND METHODS AND PRODUCTS UTILIZING SAME” (priority 2004, published 2008)
